System: MV-4-11 cells
Experiment: Gene expression microarray analysis (Affymetrix PrimeView) and GSEA
Assay type: cell-based, human
Parameters: RFU PODN (11730768_x_at) / Fold change /veh PODN (11730768_x_at) / RFU LINC00158 (11744669_a_at) / Fold change /veh LINC00158 (11744669_a_at) / RFU DUSP10 (11751237_a_at) / Fold change /veh DUSP10 (11751237_a_at) / RFU ID3 (11757404_x_at) / Fold change /veh ID3 (11757404_x_at) / RFU PLEKHG5 (11737974_s_at) / Fold change /veh PLEKHG5 (11737974_s_at) / RFU LRRC4B (11730491_at) / Fold change /veh LRRC4B (11730491_at) / RFU GIMAP4 (11747438_a_at) / Fold change /veh GIMAP4 (11747438_a_at) / RFU KRT8 (11758183_x_at) / Fold change /veh KRT8 (11758183_x_at) / RFU CNN1 (11734310_a_at) / Fold change /veh CNN1 (11734310_a_at) / RFU VPS37D (11726825_at) / Fold change /veh VPS37D (11726825_at) / RFU C10orf10 (11716522_x_at) / Fold change /veh C10orf10 (11716522_x_at) / RFU KIR2DL2 /// KIR2DL4 /// KIR2DL5A /// KIR2DL5B /// KIR2DS1 /// KIR2DS2 /// KIR2DS3 /// KIR2DS4 /// KIR3DL3 /// KIR3DL3 /// KIR3DS1 (11738374_at) / Fold change /veh KIR2DL2 /// KIR2DL4 /// KIR2DL5A /// KIR2DL5B /// KIR2DS1 /// KIR2DS2 /// KIR2DS3 /// KIR2DS4 /// KIR3DL3 /// KIR3DL3 /// KIR3DS1 (11738374_at) / RFU C1QL1 (11718748_at) / Fold change /veh C1QL1 (11718748_at) / RFU TMPRSS4 (11747572_a_at) / Fold change /veh TMPRSS4 (11747572_a_at) / RFU HAMP (11756126_x_at) / Fold change /veh HAMP (11756126_x_at) / RFU RNFT2 (11725882_a_at) / Fold change /veh RNFT2 (11725882_a_at) / RFU NR4A2 (11747474_a_at) / Fold change /veh NR4A2 (11747474_a_at) / RFU ABCC12 (11746883_a_at) / Fold change /veh ABCC12 (11746883_a_at) / RFU TMEM136 (11760407_x_at) / Fold change /veh TMEM136 (11760407_x_at) / RFU CLDN22 /// WWC2 (11732394_at) / Fold change /veh CLDN22 /// WWC2 (11732394_at) / RFU HLA-DPB1 (11760878_x_at) / Fold change /veh HLA-DPB1 (11760878_x_at) / RFU SPINT1 (11716480_a_at) / Fold change /veh SPINT1 (11716480_a_at) / RFU GAP43 (11754022_s_at) / Fold change /veh GAP43 (11754022_s_at) / RFU A4GNT (11735810_at) / Fold change /veh A4GNT (11735810_at) / RFU PRB3 (11715151_x_at) / Fold change /veh PRB3 (11715151_x_at) / RFU TUBB4B (11761932_at) / Fold change /veh TUBB4B (11761932_at) / RFU CAPN14 (11732068_a_at) / Fold change /veh CAPN14 (11732068_a_at) / RFU TMCC2 (11721928_a_at) / Fold change /veh TMCC2 (11721928_a_at) / RFU IRGQ (11745062_a_at) / Fold change /veh IRGQ (11745062_a_at) / RFU FAM174B (11720279_a_at) / Fold change /veh FAM174B (11720279_a_at) / RFU TMPRSS4 (11748680_a_at) / Fold change /veh TMPRSS4 (11748680_a_at) / RFU FAM212B (11763350_a_at) / Fold change /veh FAM212B (11763350_a_at) / RFU PLEKHG5 (11743358_a_at) / Fold change /veh PLEKHG5 (11743358_a_at) / RFU ZSCAN30 (11745921_a_at) / Fold change /veh ZSCAN30 (11745921_a_at) / RFU CMKLR1 (11741424_a_at) / Fold change /veh CMKLR1 (11741424_a_at) / RFU LOC101060620 /// MAPK8IP1 (11723275_at) / Fold change /veh LOC101060620 /// MAPK8IP1 (11723275_at) / RFU SPTSSB (11747773_x_at) / Fold change /veh SPTSSB (11747773_x_at) / RFU PRSS12 (11739890_at) / Fold change /veh PRSS12 (11739890_at) / RFU BIN1 (11741810_x_at) / Fold change /veh BIN1 (11741810_x_at) / RFU WNT11 (11732464_a_at) / Fold change /veh WNT11 (11732464_a_at) / RFU C10orf10 (11716521_a_at) / Fold change /veh C10orf10 (11716521_a_at) / RFU C5orf56 (11738089_at) / Fold change /veh C5orf56 (11738089_at) / RFU CYB561 (11721691_x_at) / Fold change /veh CYB561 (11721691_x_at) / RFU ANKRD19P (11752326_a_at) / Fold change /veh ANKRD19P (11752326_a_at) / RFU OR2T12 /// OR2T33 /// OR2T8 (11738714_s_at) / Fold change /veh OR2T12 /// OR2T33 /// OR2T8 (11738714_s_at) / RFU VCAN (11748164_a_at) / Fold change /veh VCAN (11748164_a_at) / RFU JSRP1 (11732532_at) / Fold change /veh JSRP1 (11732532_at) / RFU KRTAP10-11 (11738290_x_at) / Fold change /veh KRTAP10-11 (11738290_x_at) / RFU MYO3A (11730013_a_at) / Fold change /veh MYO3A (11730013_a_at) / RFU EBF3 (11725865_a_at) / Fold change /veh EBF3 (11725865_a_at) / RFU CAMK2N1 (11719241_x_at) / Fold change /veh CAMK2N1 (11719241_x_at) / RFU C5orf56 (11738088_a_at) / Fold change /veh C5orf56 (11738088_a_at) / RFU OLFML3 (11715873_a_at) / Fold change /veh OLFML3 (11715873_a_at) / RFU LOC100653217 /// NTM (11731650_a_at) / Fold change /veh LOC100653217 /// NTM (11731650_a_at) / RFU MAPK11 (11762145_a_at) / Fold change /veh MAPK11 (11762145_a_at) / RFU FIZ1 (11724087_x_at) / Fold change /veh FIZ1 (11724087_x_at) / RFU OASL (11726364_x_at) / Fold change /veh OASL (11726364_x_at) / RFU SOX15 (11748057_x_at) / Fold change /veh SOX15 (11748057_x_at) / RFU CD79A (11719716_a_at) / Fold change /veh CD79A (11719716_a_at) / RFU HIST1H1D (11736915_at) / Fold change /veh HIST1H1D (11736915_at) / RFU CASKIN2 (11723855_a_at) / Fold change /veh CASKIN2 (11723855_a_at) / RFU LOC730098 (11760151_x_at) / Fold change /veh LOC730098 (11760151_x_at) / RFU OR4N2 (11742367_at) / Fold change /veh OR4N2 (11742367_at) / RFU PRRT2 (11749266_a_at) / Fold change /veh PRRT2 (11749266_a_at) / RFU SNX32 (11753110_a_at) / Fold change /veh SNX32 (11753110_a_at) / RFU CDHR5 (11726645_a_at) / Fold change /veh CDHR5 (11726645_a_at) / RFU RCAN1 (11760418_a_at) / Fold change /veh RCAN1 (11760418_a_at) / RFU FAM167A (11723789_a_at) / Fold change /veh FAM167A (11723789_a_at) / RFU FAM26E (11764081_at) / Fold change /veh FAM26E (11764081_at) / RFU ISYNA1 (11749810_s_at) / Fold change /veh ISYNA1 (11749810_s_at) / RFU ACY1 (11761880_at) / Fold change /veh ACY1 (11761880_at) / RFU 11764098_at / Fold change /veh 11764098_at / RFU SAMD14 (11745864_x_at) / Fold change /veh SAMD14 (11745864_x_at) / RFU NPB (11741838_a_at) / Fold change /veh NPB (11741838_a_at) / RFU TMPRSS6 (11731388_a_at) / Fold change /veh TMPRSS6 (11731388_a_at) / RFU KRTAP10-2 (11738614_at) / Fold change /veh KRTAP10-2 (11738614_at) / RFU ARHGAP8 /// PRR5-ARHGAP8 (11727945_x_at) / Fold change /veh ARHGAP8 /// PRR5-ARHGAP8 (11727945_x_at) / RFU KRTAP5-7 /// NADSYN1 (11734609_at) / Fold change /veh KRTAP5-7 /// NADSYN1 (11734609_at) / RFU RASL12 (11751679_a_at) / Fold change /veh RASL12 (11751679_a_at) / RFU CDKN2B (11736163_a_at) / Fold change /veh CDKN2B (11736163_a_at) / RFU PRF1 (11729649_at) / Fold change /veh PRF1 (11729649_at) / RFU, ZNF638 /// ZNF638-IT1 / Fold change vs veh, ZNF638 /// ZNF638-IT1 / RFU, PANK3 / Fold change vs veh, PANK3 / RFU, SH3YL1 / Fold change vs veh, SH3YL1 / RFU, ZEB2 / Fold change vs veh, ZEB2 / RFU, NRIP1 / Fold change vs veh, NRIP1 / RFU, PTTG1IP / Fold change vs veh, PTTG1IP / RFU, CAPN2 / Fold change vs veh, CAPN2 / RFU, MED14 / Fold change vs veh, MED14 / RFU, SNORA58 / Fold change vs veh, SNORA58 / RFU, C1orf63 / Fold change vs veh, C1orf63 / RFU, LRRFIP1 / Fold change vs veh, LRRFIP1 / RFU, NDUFAF7 / Fold change vs veh, NDUFAF7 / RFU, SLC12A2 / Fold change vs veh, SLC12A2 / RFU, IBTK / Fold change vs veh, IBTK / RFU, ESF1 / Fold change vs veh, ESF1 / Fold change vs veh, TMEM50B / RFU, TAOK1 / Fold change vs veh, TAOK1 / RFU, ACBD3 / Fold change vs veh, ACBD3 / RFU, TMA16 / Fold change vs veh, TMA16 / RFU, RWDD3 / Fold change vs veh, RWDD3 / RFU, BCAT1 / Fold change vs veh, BCAT1 / RFU, EDEM3 / Fold change vs veh, EDEM3 / RFU, TMEM33 / Fold change vs veh, TMEM33 / RFU, WDR75 / Fold change vs veh, WDR75 / RFU, AHCTF1 / Fold change vs veh, AHCTF1 / RFU, TFRC / Fold change vs veh, TFRC / RFU, ZDHHC17 / Fold change vs veh, ZDHHC17 / RFU, NOM1 / Fold change vs veh, NOM1 / RFU, ARL8B / Fold change vs veh, ARL8B / RFU, ZBTB11 / Fold change vs veh, ZBTB11 / RFU, TAMM41 / Fold change vs veh, TAMM41 / RFU, KIAA1704 /// LOC100996395 / Fold change vs veh, KIAA1704 /// LOC100996395 / RFU, ING1 / Fold change vs veh, ING1 / RFU, TRMT61B / Fold change vs veh, TRMT61B / RFU, FUBP3 / Fold change vs veh, FUBP3 / RFU, TP53 / Fold change vs veh, TP53 / RFU, TNKS2 / Fold change vs veh, TNKS2 / RFU, ZFP14 / Fold change vs veh, ZFP14 / RFU, ACTR2 / Fold change vs veh, ACTR2 / RFU, PPP3R1 / Fold change vs veh, PPP3R1 / RFU, PIK3R1 / Fold change vs veh, PIK3R1 / RFU, HNRNPA1 / Fold change vs veh, HNRNPA1 / RFU, RNF170 / Fold change vs veh, RNF170 / RFU, ZNF28 / Fold change vs veh, ZNF28 / RFU, RNGTT / Fold change vs veh, RNGTT / RFU, OGT / Fold change vs veh, OGT / RFU, BRD1 / Fold change vs veh, BRD1 / RFU, MARS / Fold change vs veh, MARS / RFU, ZNF655 / Fold change vs veh, ZNF655 / RFU, FAHD1 / Fold change vs veh, FAHD1 / RFU, BDP1 / Fold change vs veh, BDP1 / RFU, LRRCC1 / Fold change vs veh, LRRCC1 / RFU, ARID1A / Fold change vs veh, ARID1A / RFU, ZNF146 / Fold change vs veh, ZNF146 / RFU, ZNF330 / Fold change vs veh, ZNF330 / RFU, GPN3 / Fold change vs veh, GPN3 / RFU, C9orf123 / Fold change vs veh, C9orf123 / RFU, N4BP2L2 / Fold change vs veh, N4BP2L2 / RFU, ARFIP1 / Fold change vs veh, ARFIP1 / RFU, FAM179B / Fold change vs veh, FAM179B / RFU, BCL10 / Fold change vs veh, BCL10 / RFU, UHRF1BP1L / Fold change vs veh, UHRF1BP1L / RFU, BET1 / Fold change vs veh, BET1 / RFU, CNOT2 / Fold change vs veh, CNOT2 / RFU, ZNF268 / Fold change vs veh, ZNF268 / Fold change vs veh, ZNF507 / RFU, DGCR2 / Fold change vs veh, DGCR2 / RFU, WDSUB1 / Fold change vs veh, WDSUB1 / Fold change vs veh, HSP90B1 /// MIR3652 / RFU, ADSS / Fold change vs veh, ADSS / RFU, GK / Fold change vs veh, GK / RFU, ZNF148 / Fold change vs veh, ZNF148 / RFU, TAF9 / Fold change vs veh, TAF9 / RFU, SLC1A5 / Fold change vs veh, SLC1A5 / RFU, SLMO2 / Fold change vs veh, SLMO2 / RFU, ABCC4 / Fold change vs veh, ABCC4 / RFU, LOC101060439 /// RAP1B / Fold change vs veh, LOC101060439 /// RAP1B / RFU, RFX7 / Fold change vs veh, RFX7 / RFU, GTPBP10 / Fold change vs veh, GTPBP10 / RFU, CNEP1R1 / Fold change vs veh, CNEP1R1 / RFU, BIVM-ERCC5 /// ERCC5 / Fold change vs veh, BIVM-ERCC5 /// ERCC5 / RFU, ILF3 / Fold change vs veh, ILF3 / RFU 11762660_at / Fold change /veh 11762660_at / RFU VCAN (11757783_s_at) / Fold change /veh VCAN (11757783_s_at) / RFU DDX43 (11728927_at) / Fold change /veh DDX43 (11728927_at) / RFU KRT8 (11758188_x_at) / Fold change /veh KRT8 (11758188_x_at) / RFU NKD1 (11759106_at) / Fold change /veh NKD1 (11759106_at) / RFU SRD5A1 (11742802_a_at) / Fold change /veh SRD5A1 (11742802_a_at) / RFU TPSAB1 /// TPSB2 (11721975_s_at) / Fold change /veh TPSAB1 /// TPSB2 (11721975_s_at) / RFU GSTM3 (11746129_a_at) / Fold change /veh GSTM3 (11746129_a_at) / RFU IL23R (11737362_x_at) / Fold change /veh IL23R (11737362_x_at) / RFU TMEM51 (11727254_a_at) / Fold change /veh TMEM51 (11727254_a_at) / RFU PIWIL2 (11732686_x_at) / Fold change /veh PIWIL2 (11732686_x_at) / RFU ORM1 (11744905_x_at) / Fold change /veh ORM1 (11744905_x_at) / RFU CCDC152 (11743942_at) / Fold change /veh CCDC152 (11743942_at) / RFU ECM1 (11717891_a_at) / Fold change /veh ECM1 (11717891_a_at) / RFU IL23R (11748794_a_at) / Fold change /veh IL23R (11748794_a_at) / RFU TNFAIP8L3 (11732012_x_at) / Fold change /veh TNFAIP8L3 (11732012_x_at) / RFU MBOAT4 (11741988_at) / Fold change /veh MBOAT4 (11741988_at) / RFU 11764193_at / Fold change /veh 11764193_at / RFU TMEM53 (11763286_at) / Fold change /veh TMEM53 (11763286_at) / RFU MAGEB2 (11727129_at) / Fold change /veh MAGEB2 (11727129_at) / RFU TMEM200A (11744735_a_at) / Fold change /veh TMEM200A (11744735_a_at) / RFU CCDC152 (11751479_a_at) / Fold change /veh CCDC152 (11751479_a_at) / RFU FAM211A (11726209_a_at) / Fold change /veh FAM211A (11726209_a_at) / RFU RGS16 (11746705_a_at) / Fold change /veh RGS16 (11746705_a_at) / RFU VCAN (11755009_s_at) / Fold change /veh VCAN (11755009_s_at) / RFU RHOB (11743442_s_at) / Fold change /veh RHOB (11743442_s_at) / RFU RGS16 (11720943_a_at) / Fold change /veh RGS16 (11720943_a_at) / RFU RGS16 (11720944_at) / Fold change /veh RGS16 (11720944_at) / RFU, VPS4B / Fold change vs veh, VPS4B / RFU, CREB1 / Fold change vs veh, CREB1 / RFU, DNAJC13 / Fold change vs veh, DNAJC13 / RFU, GNAQ / Fold change vs veh, GNAQ / RFU, CDK5R1 / Fold change vs veh, CDK5R1 / RFU, ZRANB3 / Fold change vs veh, ZRANB3 / RFU, CUL4A / Fold change vs veh, CUL4A / RFU, CCNY / Fold change vs veh, CCNY / RFU, UFL1 / Fold change vs veh, UFL1 / RFU, COG3 / Fold change vs veh, COG3 / RFU, DIAPH2 / Fold change vs veh, DIAPH2 / RFU, SKA2 / Fold change vs veh, SKA2 / RFU, AFF3 / Fold change vs veh, AFF3 / RFU, LMF1 / Fold change vs veh, LMF1 / RFU, IPO11 / Fold change vs veh, IPO11 / RFU, DFFB / Fold change vs veh, DFFB / RFU, FOXP1 / Fold change vs veh, FOXP1 / RFU, CARD8 / Fold change vs veh, CARD8 / RFU, STRN3 / Fold change vs veh, STRN3 / RFU, ADK / Fold change vs veh, ADK / RFU, RASSF2 / Fold change vs veh, RASSF2 / RFU, WIPF1 / Fold change vs veh, WIPF1 / RFU, LARP1B / Fold change vs veh, LARP1B / RFU, RASA1 / Fold change vs veh, RASA1 / RFU, RB1 / Fold change vs veh, RB1 / RFU, PPFIA1 / Fold change vs veh, PPFIA1 / RFU, MAT2A / Fold change vs veh, MAT2A / RFU, CCT5 / Fold change vs veh, CCT5 / RFU, WDR92 / Fold change vs veh, WDR92 / RFU, CUX1 / Fold change vs veh, CUX1 / RFU, TTC7A / Fold change vs veh, TTC7A / RFU, TMEM135 / Fold change vs veh, TMEM135 / RFU, DEPTOR / Fold change vs veh, DEPTOR / RFU, CPM / Fold change vs veh, CPM / RFU, DNAJB6 / Fold change vs veh, DNAJB6 / RFU, CACNA2D3 / Fold change vs veh, CACNA2D3 / RFU, DTX4 / Fold change vs veh, DTX4 / RFU, TFCP2 / Fold change vs veh, TFCP2 / RFU, GMCL1 /// GMCL1P1 / Fold change vs veh, GMCL1 /// GMCL1P1 / RFU, AEBP2 / Fold change vs veh, AEBP2 / RFU, SNHG1 /// SNORD22 /// SNORD25 /// SNORD26 /// SNORD27 /// SNORD28 /// SNORD29 /// SNORD31 / Fold change vs veh, SNHG1 /// SNORD22 /// SNORD25 /// SNORD26 /// SNORD27 /// SNORD28 /// SNORD29 /// SNORD31 / Fold change (Aza/veh), C12orf56 (ProbeSet 11735607_a_at) / Fold change (ACY-1035/veh), C12orf56 (ProbeSet 11735607_a_at) / Fold change (Aza/veh), FGFR1OP (ProbeSet 11751329_s_at) / Fold change (ACY-1035/veh), FGFR1OP (ProbeSet 11751329_s_at) / Fold change (Aza/veh), VPS36 (ProbeSet 11739960_a_at) / Fold change (ACY-1035/veh), VPS36 (ProbeSet 11739960_a_at) / RFU SYPL1 (11715823_x_at) / Fold change /veh SYPL1 (11715823_x_at) / RFU IGFBP7 (11715501_s_at) / Fold change /veh IGFBP7 (11715501_s_at) / RFU REEP3 (11722064_at) / Fold change /veh REEP3 (11722064_at) / RFU IGLL1 (11728026_x_at) / Fold change /veh IGLL1 (11728026_x_at): dose or concentration left out as unconfirmed
Conditions: MV-4-11 cells, 48 hours

In the case of `Nc1ncn([C@@H]2O[C@H](CO)[C@@H](O)[C@H]2O)c(=O)n1` [azacitidine], the “RFU ID3 (11757404_x_at)” value is reported as 51.53 RFU.

Source: paper PMC5218480 (PLoS ONE, 2017)
